Blank lines part the entries; values can stand above or below the compound they belong to.
What was measured:
Type in all cases: physicochemical
[1] = In vitro drug release from silicone polymer matrix test samples in PBS pH 7.4 at 37° C., RPHPLC; details: for Daily Release Rate: 25% Latanoprost matrix plug, PTFE Thread Seal Tape coat, two 18G depot channels
Protocol: To test the controlled release properties of the disclosed drug-loaded silicone polymer matrices, the effects of a coating were examined. In these experiments, test samples were made as described in Example 1 to produce thin-disc-shaped drug-loaded polymer matrix. From this material, test samples were prepared by 1) cutting out rectangular polygons of about 3 mm length, about 1 mm width and about 1 mm height were cut from polymerized drug-loaded material; or 2) cutting out cylindrical plugs of about 3 mm length and having a diameter of about 0.5 mm to about 1 mm. The weight of the test samples were in the range about 0.1 mg to about 4 mg.
Certain of these cut test samples were then coated using one of three procedures. Cut test samples were coated with a polymer like poly(p-xylylene) (PARYLENE) to a thickness of about 0.10 μm to about 0.95 μm using a vapor phase deposition procedure. Similarly, cut test samples were coated a metal like titanium to a thickness of about 0.10 μm to about 0.95 μm using a vapor phase deposition procedure. Alternatively, cut test samples were physically wrapped with a tape like polytetrafluoroethylene tape and sealed using cyanoacrylate adhesive.
The presence of opening in a coated test sample was also examined. In these experiments, coated test samples were punctured to produce opening through the coating layer. From one to four opening were made using the tip of an 18G, 23G, 27G or 31G needle. Two types of opening were produced 1) surface pores which created openings only through the coating layer but left the polymer matrix intact; and 2) depot channels which created a tunnel through the entire coated test sample from one end to the other end.
To examine the drug release properties of a test sample, each sample was placed in 2 mL Eppendorf tube containing 1.5 mL of Phosphate Buffered Saline, pH 7.4 (PBS). These tubes were slowly rocked at 37° C. in an incubator. At given time points the PBS was completely removed from the tube and refilled with fresh PBS. An aliquot of the removed PBS was then analyzed by reversed phase HPLC (RPHPLC) to determine the amount of drug released from the test sample during the incubation period. In these experiments, a 10 μL injection of the test sample aliquot was run on an Agilent 1260 Infinity in a reverse phase isocratic mode using UV detection at 210 nm. The column was a Hypersil GOLD Phenyl column, (Dim. (mm) 250×4.6) and the mobile phase was a 1:1 mixture of acetonitrile to aqueous buffer (comprising HPLC grade water mixed with 5 mM ammonium acetate and 0.02% formic acid). The flow rate was 1.2 mL/min and column temperature was 22° C. Peak detection and quantitation was determined by establishing a calibration curve using known amounts of each drug tested and the amount of drug present in the test sample aliquot interpolated from this calibration curve using ChemStation software.

[2] = Korsmeyer-Peppas analysis of drug release data; details: for Average n Values, Korsmeyer-Peppas Analysis, Mean: Mean over drug loadings
Protocol: To confirm the results obtained based on the Higuchi equation analysis, the data above was also analyzed using the Korsmeyer-Peppas plot, which evaluates the mechanism of drug release by plotting the log of percent drug released over the log time in hours. If n equals 0.45, then Fickian diffusion is indicated for a cylinder (0.42 for cylinder of low aspect ratio). […] As exemplified FIG. 11, data is plotted as the log of cumulative percent drug released on the y-axis and the log time in hours on the x-axis.

[3] = Higuchi equation analysis of drug release data
Protocol: In order to ascertain whether the mechanism of drug release was based on diffusion, data obtained from various coated silicone polymer matrices were analyzed using the Higuchi equation. This analysis determined the linearity between the cumulative amount of drug released and the square root of time (SQRT). […] As exemplified FIG. 10, data is plotted as the square root of time taken on the x-axis and the cumulative percentage of drug release on the y-axis.

[4] = Visual examination of physical appearance and mixing of drug-loaded silicone polymer matrix test samples
Description: To test the loading capacity of a silicone elastomer polymer matrix for a prostaglandin analogue, polymer matrix with different amounts and types of a prostaglandin analogue were made and the physical and mechanical properties of the resulting polymerized drug-loaded matrix were characterized (Tables 1-3). These polymer matrix test samples were made by mixing together a prostaglandin analogue, a liquid cyclic vinyl siloxane elastomer, a crosslinker, and a catalyst using a high-speed mixer and then heated the capped container at 70° C. for 24 hours to cure the mixture. A filler, such as a fumed silica, was also used to provide sufficient mechanical strength to the polymerized matrix. In addition, an inhibitor was used to slow the crosslinking reaction to a workable rate. The resulting thin-disc-shaped drug-loaded polymer matrix was allowed to cool to room temperature and then placed in 4° C. for 24 hours to increase stiffness of the material. The physical appearance of each drug-loaded polymer matrix test sample was examined visually and its mechanical properties analyzed using a durometer.

[5] = Modified Higuchi plot (2A versus Q^2/T)
Protocol: Travoprost and Latanoprost are oily liquids at room temperature whereas Bimatoprost is a solid at room temperature. To determine whether the liquid versus solid phase of these drugs affects their release from the silicone polymer matrix, data was analyzed using an alternative plot based on the Higuchi equation where twice the drug loading value (2A) is plotted on the […] and the average slope of the plot of cumulative drug released squared versus time in hours (Q^2/T) is plotted on the […].

[6] = Chemical stability of prostaglandin analogues in PBS, RPHPLC; details: PBS at pH 4, 7 and 10; 4° C., 33° C. and 50° C.
Protocol: The chemical stability of prostaglandin analogues was also examined. In these experiments, a prostaglandin analogue was incubated in phospho-buffered saline (PBS) at pH 4, 7 and 10 and at 4° C., 33° C. and 50° C. representing long term storage, eye temperature and accelerate temperature conditions respectively. Analyses were performed by RPHPLC as described in Example 2, noting any hydrolysis products formed. […] This stability is most likely due to the amide linkage in Bimatoprost which is much more hydrolytically stable than the ester linkage in Latanoprost and Travoprost.

Daily Release Rate ([1]; day 7): 3.86 µg/day | Daily Release Rate ([1]; day 19): 5.68 µg/day | Daily Release Rate ([1]; day 29): 3.60 µg/day | Daily Release Rate ([1]; day 64): 5.11 µg/day | Daily Release Rate ([1]; day 71): 8.13 µg/day | Daily Release Rate ([1]; day 106): 2.82 µg/day | Daily Release Rate ([1]; day 122): 1.18 µg/day | period of near zero order release ([1]; coated test sample, 25% Latanoprost, four surface pores): 42 days | total amount of drug released ([1]; coated test sample, 25% Latanoprost, four surface pores, as of 140 days): 2.2% | Average n Values, Korsmeyer-Peppas Analysis ([2]; Drug Loading 5%): 0.504± | Average n Values, Korsmeyer-Peppas Analysis ([2]; Drug Loading 10%): 0.501± | Average n Values, Korsmeyer-Peppas Analysis ([2]; Drug Loading 15%): 0.712± | Average n Values, Korsmeyer-Peppas Analysis ([2]; Drug Loading 20%): 1.200± | Average n Values, Korsmeyer-Peppas Analysis, Mean [2]: 0.57 ± 0.16 | Average Linear Regression r^2 Value, Higuchi Equation Analysis ([3]; Drug Loading 5%): 0.964 | Average Linear Regression r^2 Value, Higuchi Equation Analysis ([3]; Drug Loading 10%): 0.983 | Average Linear Regression r^2 Value, Higuchi Equation Analysis ([3]; Drug Loading 15%): 0.990 | Average Linear Regression r^2 Value, Higuchi Equation Analysis ([3]; Drug Loading 20%): 0.990
Compound: CC(C)OC(=O)CCC/C=C\C[C@@H]1[C@@H](CC[C@@H](O)CCc2ccccc2)[C@H](O)C[C@@H]1O [Latanoprost]
release profile ([1]; uncoated silicone polymer matrix loaded with 10% Latanoprost, FIG. 5): rapid release of the drug over the first five days, which then tapers off and by day 12 shows no further significant release of Latanoprost | physical examination of test sample ([4]; 25% Latanoprost test sample): exhibited more elasticity but had a surface with tacky attributes and a consistency that was not fully homogeneous

average slope of cumulative drug released squared versus time in hours (Q^2/T) ([5]; Loading (A %) 1.0): 0.204 ± 0.035 | average slope of cumulative drug released squared versus time in hours (Q^2/T) ([5]; Loading (A %) 2.5): 0.387 ± 0.009 | average slope of cumulative drug released squared versus time in hours (Q^2/T) ([5]; Loading (A %) 5.0): 1.680 ± 0.232 | average slope of cumulative drug released squared versus time in hours (Q^2/T) ([5]; Loading (A %) 10): 2.327 ± 0.252 | relationship of Q^2/T to 2A in modified Higuchi plot ([5]; Table 10, FIG. 12 and FIG. 13): linear relationship | Average n Values, Korsmeyer-Peppas Analysis ([2]; Drug Loading 1%): 0.326± | Average n Values, Korsmeyer-Peppas Analysis ([2]; Drug Loading 2.5%): 0.372± | Average n Values, Korsmeyer-Peppas Analysis ([2]; Drug Loading 5%): 0.411± | Average n Values, Korsmeyer-Peppas Analysis ([2]; Drug Loading 10%): 0.377± | Average n Values, Korsmeyer-Peppas Analysis ([2]; Drug Loading 15%): 0.380± | Average n Values, Korsmeyer-Peppas Analysis ([2]; Drug Loading 20%): 0.601± | Average n Values, Korsmeyer-Peppas Analysis, Mean [2]: 0.37 ± 0.08 | Average Linear Regression r^2 Value, Higuchi Equation Analysis ([3]; Drug Loading 1%): 0.992 | Average Linear Regression r^2 Value, Higuchi Equation Analysis ([3]; Drug Loading 2.5%): 0.995 | Average Linear Regression r^2 Value, Higuchi Equation Analysis ([3]; Drug Loading 5%): 0.997 | Average Linear Regression r^2 Value, Higuchi Equation Analysis ([3]; Drug Loading 10%): 0.988 | Average Linear Regression r^2 Value, Higuchi Equation Analysis ([3]; Drug Loading 15%): 0.994 | Average Linear Regression r^2 Value, Higuchi Equation Analysis ([3]; Drug Loading 20%): 0.972
Compound: CCNC(=O)CCC/C=C\C[C@@H]1[C@@H](/C=C/[C@@H](O)CCc2ccccc2)[C@H](O)C[C@@H]1O [Bimatoprost]
mixing in the liquid siloxane elastomer ([4]; 15% or 20% Bimatoprost test samples): difficult to mix in the liquid siloxane elastomer | physical examination of test sample ([4]; 20% Bimatoprost test sample): brittle and contained clumps of unincorporated components from the mixture | chemical stability (hydrolysis products) [6]: excellent stability with Bimatoprost being the most stable
